Assay results taken from ChEMBL document CHEMBL3885861, “Open TG-GATES”.

Species: Rattus norvegicus
Assay: Open TG-GATES - Regimen: Daily Repeat
Type: toxicity, organism-based, Sprague-Dawley
Design: regimen Daily Repeat, gender Male, age 6 weeks
Conditions: in vivo, iv, 300 mg/kg, […], route intravenous injection, dose level Low; for KIDNEY_L / KIDNEY_R / KIDNEY_TOTAL: tissue Kidney; for LIVER: tissue Liver; for ALP / ALT / AST / BUN / CRE / Ca / Cl / DBIL / GLC / IP / K / LDH / Na / PL / RALB / TBIL / TC / TG / TP / gamma-GTP: tissue Plasma

CC(=O)OCC1=C(C(=O)O)N2C(=O)[C@@H](NC(=O)Cc3cccs3)[C@H]2SC1 [CEPHALOTHIN]
Ht (tissue Blood, time 28 day): 42.1%
Lym (tissue Blood, time 28 day): 87.4%
MCH (tissue Blood, time 28 day): 19.1 pg
MCHC (tissue Blood, time 28 day): 36.6%
MCV (tissue Blood, time 28 day): 52.3 fL
Mono (tissue Blood, time 28 day): 2.4%
Neu (tissue Blood, time 28 day): 8.2%
PT (tissue Blood, time 28 day): 16.2 s
Plat (tissue Blood, time 28 day): 107.1 x10_4/uL
RBC (tissue Blood, time 28 day): 805.4 x10_4/ul
Ret (tissue Blood, time 28 day): 2.3%
WBC (tissue Blood, time 28 day): 92.3 x10_2/uL
KIDNEY_L (time 7 day): 1.1 g
KIDNEY_R (time 7 day): 1.1 g
KIDNEY_TOTAL (time 7 day): 2.1 g
KIDNEY_L (time 14 day): 1.2 g
KIDNEY_R (time 14 day): 1.3 g
KIDNEY_TOTAL (time 14 day): 2.5 g
KIDNEY_L (time 28 day): 1.4 g
KIDNEY_R (time 28 day): 1.4 g
KIDNEY_TOTAL (time 28 day): 2.8 g
LIVER (time 7 day): 11.8 g
LIVER (time 14 day): 12.3 g
LIVER (time 28 day): 14.2 g
ALP (time 7 day): 1472.6 IU/L
ALT (time 7 day): 34.4 IU/L
AST (time 7 day): 68.2 IU/L
BUN (time 7 day): 17.8 mg/dL
CRE (time 7 day): 0.2 mg/dL
Ca (time 7 day): 10.6 mg/dL
Cl (time 7 day): 106.2 meq/L
DBIL (time 7 day): 0 mg/dL
GLC (time 7 day): 174.4 mg/dL
IP (time 7 day): 7 mg/dL
K (time 7 day): 4.4 meq/L
LDH (time 7 day): 178.2 IU/L
Na (time 7 day): 141.4 meq/L
PL (time 7 day): 144.6 mg/dL
RALB (time 7 day): 3 g/dL
TBIL (time 7 day): 0.004 mg/dL
TC (time 7 day): 71.2 mg/dL
TG (time 7 day): 146.8 mg/dL
TP (time 7 day): 5.5 g/dL
gamma-GTP (time 7 day): 1.6 IU/L
ALP (time 14 day): 1293.4 IU/L
ALT (time 14 day): 29.6 IU/L
AST (time 14 day): 57.8 IU/L
BUN (time 14 day): 16.8 mg/dL
CRE (time 14 day): 0.2 mg/dL
Ca (time 14 day): 10.9 mg/dL
Cl (time 14 day): 106.2 meq/L
DBIL (time 14 day): 0 mg/dL
GLC (time 14 day): 179.4 mg/dL
IP (time 14 day): 6.9 mg/dL
K (time 14 day): 4.2 meq/L
LDH (time 14 day): 109.2 IU/L
Na (time 14 day): 142.2 meq/L
PL (time 14 day): 142.6 mg/dL
RALB (time 14 day): 3.1 g/dL
TBIL (time 14 day): 0.01 mg/dL
TC (time 14 day): 75 mg/dL
TG (time 14 day): 103.4 mg/dL
TP (time 14 day): 5.7 g/dL
gamma-GTP (time 14 day): 2 IU/L
ALP (time 28 day): 1007.4 IU/L
ALT (time 28 day): 30.4 IU/L
AST (time 28 day): 58.8 IU/L
BUN (time 28 day): 16.6 mg/dL
CRE (time 28 day): 0.2 mg/dL
Ca (time 28 day): 10.5 mg/dL
Cl (time 28 day): 106.8 meq/L
DBIL (time 28 day): 0.004 mg/dL
GLC (time 28 day): 168.4 mg/dL
IP (time 28 day): 5.6 mg/dL
K (time 28 day): 4.1 meq/L
LDH (time 28 day): 158 IU/L
Na (time 28 day): 143.2 meq/L
PL (time 28 day): 134.2 mg/dL
RALB (time 28 day): 3.1 g/dL
TBIL (time 28 day): 0.006 mg/dL
TC (time 28 day): 65.6 mg/dL
TG (time 28 day): 141.2 mg/dL
TP (time 28 day): 5.9 g/dL
gamma-GTP (time 28 day): 1 IU/L
